pIC50: −log10 of the molar value.
What was measured:
human P2Y12 receptor = human P2Y12 receptor (Homo sapiens, UniProt Q9H244); assay: Human P2Y12 recombinant cell membrane binding assay with 33P 2MeS-ADP; conditions: competition against 33P 2MeS-ADP, membranes of CHO cells with recombinant human P2Y12 receptor
In short: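 Competition binding against radiolabeled 2MeS-ADP (1.61 nM as added) on membranes from recombinant human P2Y12 CHO cells, 20 min RT after 15 min compound preincubation, pH 7.4. Filtration then scintillation counting; compounds tested in triplicate from 10 μM final, five-fold dilutions, curve fit with plate-defined min/max.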

[1] = system: human platelet rich plasma; assay: Inhibition of human platelet aggregation, 96-well assay; assay type: cell-based; conditions: Homo sapiens, Platelet, 20 min
In short: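 ADP-induced aggregation read as 650 nm absorbance every minute for 20 min at 37 °C, with shaking between reads. PRP (~3×E8 platelets/ml, diluted with PPP, ACD-A blood from healthy volunteers) was exposed to compound for 5 min before adding a 40 μM ADP stock (15 μl into 150 μl).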

Sequence of human P2Y12 receptor (Q9H244 whole entry): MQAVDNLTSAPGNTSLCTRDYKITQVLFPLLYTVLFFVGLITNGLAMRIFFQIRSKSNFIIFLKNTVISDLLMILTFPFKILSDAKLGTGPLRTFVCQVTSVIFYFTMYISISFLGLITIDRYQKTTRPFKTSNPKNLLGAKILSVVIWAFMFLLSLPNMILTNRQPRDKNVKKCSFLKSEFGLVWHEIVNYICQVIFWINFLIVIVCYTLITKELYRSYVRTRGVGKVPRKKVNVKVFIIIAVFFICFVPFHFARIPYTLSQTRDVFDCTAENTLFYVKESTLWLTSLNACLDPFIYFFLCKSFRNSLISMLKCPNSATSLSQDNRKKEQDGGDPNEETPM

| pIC50 (human P2Y12 receptor) | pIC50 [1] | Structure (SMILES) |
| --- | --- | --- |
| 6.74 | 5.95 | CCOC(=O)N1CCN(C(=O)[C@H](CNC(C)=O)NC(=O)c2cc(OCC(=O)N3CCC[C@H]3C(=O)NC3CCC3)n(-c3ccccc3)n2)CC1 [Example 87, 4-[(S)-3-Acetylamino-2-({5-[2-((S)-2-cyclobutylcarbamoyl-pyrrolidin-1-yl)-2-oxo-ethoxy]-1-phenyl-1H-pyrazole-3-carbonyl}-amino)-propionyl]-piperazine-1-carboxylic acid ethyl ester] |
| 6.96 | 5.95 | CCOC(=O)N1CCN(C(=O)[C@H](CCNC(C)=O)NC(=O)c2cc(OCC(=O)N3CCC[C@H]3C(=O)NC3CCC3)n(-c3ccccc3)n2)CC1 [Example 92, 4-[(S)-4-Acetylamino-2-({5-[2-((S)-2-cyclobutylcarbamoyl-pyrrolidin-1-yl)-2-oxo-ethoxy]-1-phenyl-1H-pyrazole-3-carbonyl}-amino)-butyryl]-piperazine-1-carboxylic acid ethyl ester] |
| 6.97 | 6.23 | CCOC(=O)N1CCN(C(=O)[C@H](CCNC(=O)OC)NC(=O)c2cc(OCC(=O)N3CCC[C@H]3C(=O)NC3CCC3)n(-c3ccccc3)n2)CC1 [Example 93, 4-[(S)-2-({5-[2-((S)-2-Cyclobutylcarbamoyl-pyrrolidin-1-yl)-2-oxo-ethoxy]-1-phenyl-1H-pyrazole-3-carbonyl}-amino)-4-methoxycarbonylamino-butyryl]-piperazine-1-carboxylic acid ethyl ester] |
| 7.12 | 6.59 | CCOC(=O)N1CCN(C(=O)[C@H](CCNC(=O)C2CC2)NC(=O)c2cc(OCC(=O)N3CCC[C@H]3C(=O)NC3CCC3)n(-c3ccccc3)n2)CC1 [Example 95, 4-[(S)-2-({5-[2-((S)-2-Cyclobutylcarbamoyl-pyrrolidin-1-yl)-2-oxo-ethoxy]-1-phenyl-1H-pyrazole-3-carbonyl}-amino)-4-(cyclopropanecarbonyl-amino)-butyryl]-piperazine-1-carboxylic acid ethyl ester] |
| 6.97 | 6.17 | CCOC(=O)C(=O)NCC[C@H](NC(=O)c1cc(OCC(=O)N2CCC[C@H]2C(=O)NC2CCC2)n(-c2ccccc2)n1)C(=O)N1CCN(C(=O)OCC)CC1 [Example 96, 4-[(S)-2-({5-[2-((S)-2-Cyclobutylcarbamoyl-pyrrolidin-1-yl)-2-oxo-ethoxy]-1-phenyl-1H-pyrazole-3-carbonyl}-amino)-4-(ethoxyoxalyl-amino)-butyryl]-piperazine-1-carboxylic acid ethyl ester] |
| 7.11 | 6.10 | COc1cccc(N2CCN(C(=O)[C@H](CCC(=O)O)NC(=O)c3cc(OCC(=O)N4CCC[C@H]4C(=O)NC4CCC4)n(-c4ccccc4)n3)CC2)c1 [Example 101, (S)-4-({5-[2-((S)-2-Cyclobutylcarbamoyl-pyrrolidin-1-yl)-2-oxo-ethoxy]-1-phenyl-1H-pyrazole-3-carbonyl}-amino)-5-[4-(3-methoxy-phenyl)-piperazin-1-yl]-5-oxo-pentanoic acid] |
| 6.98 | 5.88 | O=C(O)CC[C@H](NC(=O)c1cc(OCC(=O)N2CCC[C@H]2C(=O)NC2CCC2)n(-c2ccccc2)n1)C(=O)N1CCC(C(=O)c2ccccc2)CC1 [Example 106, (S)-5-(4-Benzoyl-piperidin-1-yl)-4-({5-[2-((S)-2-cyclobutylcarbamoyl-pyrrolidin-1-yl)-2-oxo-ethoxy]-1-phenyl-1H-pyrazole-3-carbonyl}-amino)-5-oxo-pentanoic acid] |
| 7.43 | 6.36 | CCOC(=O)CC[C@H](NC(=O)c1cc(OCC(=O)N2CCC[C@H]2C(=O)NC2CCC2)n(-c2ccccc2)n1)C(=O)N1CCN(C(=O)OCC)CC1 [Example 127, 4-[(S)-2-({5-[2-((S)-2-Cyclobutylcarbamoyl-pyrrolidin-1-yl)-2-oxo-ethoxy]-1-phenyl-1H-pyrazole-3-carbonyl}-amino)-4-ethoxycarbonyl-butyryl]-piperazine-1-carboxylic acid ethyl ester] |
| 7.37 | 6.16 | CCOC(=O)N1CCN(C(=O)[C@H](CCC(=O)OCC2CC2)NC(=O)c2cc(OCC(=O)N3CCC[C@H]3C(=O)NC3CCC3)n(-c3ccccc3)n2)CC1 [Example 128, 4-[(S)-2-({5-[2-((S)-2-Cyclobutylcarbamoyl-pyrrolidin-1-yl)-2-oxo-ethoxy]-1-phenyl-1H-pyrazole-3-carbonyl}-amino)-4-cyclopropylmethoxycarbonyl-butyryl]-piperazine-1-carboxylic acid ethyl ester] |
| 7.41 | 6.59 | CCOC(=O)N1CCN(C(=O)[C@H](CCC(=O)OC)NC(=O)c2cc(OCC(=O)N3CCC[C@H]3C(=O)NC3CCC3)n(-c3ccccc3)n2)CC1 [Example 136, 4-[(S)-2-({5-[2-((S)-2-Cyclobutylcarbamoyl-pyrrolidin-1-yl)-2-oxo-ethoxy]-1-phenyl-1H-pyrazole-3-carbonyl}-amino)-4-methoxycarbonyl-butyryl]-piperazine-1-carboxylic acid ethyl ester] |
| 7.08 | 5.78 | CCOC(=O)N1CCN(C(=O)[C@H](CCC(=O)OCC2CCCC2)NC(=O)c2cc(OCC(=O)N3CCC[C@H]3C(=O)NC3CCC3)n(-c3ccccc3)n2)CC1 [Example 138, 4-[(S)-2-({5-[2-((S)-2-Cyclobutylcarbamoyl-pyrrolidin-1-yl)-2-oxo-ethoxy]-1-phenyl-1H-pyrazole-3-carbonyl}-amino)-4-cyclopentylmethoxycarbonyl-butyryl]-piperazine-1-carboxylic acid ethyl ester] |
| 7.25 | 6.44 | CCOC(=O)N1CCN(C(=O)[C@H](CCC(=O)OCOC(=O)C(C)(C)C)NC(=O)c2cc(OCC(=O)N3CCC[C@H]3C(=O)NC3CCC3)n(-c3ccccc3)n2)CC1 [Example 139, 4-[(S)-2-({5-[2-((S)-2-Cyclobutylcarbamoyl-pyrrolidin-1-yl)-2-oxo-ethoxy]-1-phenyl-1H-pyrazole-3-carbonyl}-amino)-4-(2,2-dimethyl-propionyloxymethoxycarbonyl)-butyryl]-piperazine-1-carboxylic acid ethyl ester] |

| Structure (SMILES) | pIC50 (human P2Y12 receptor) | pIC50 [1] |
| --- | --- | --- |
| CCOC(=O)N1CCN(C(=O)[C@H](CCC(=O)OC2CCC2)NC(=O)c2cc(OCC(=O)N3CCC[C@H]3C(=O)NC3CCC3)n(-c3ccccc3)n2)CC1 [Example 131, 4-[(S)-2-({5-[2-((S)-2-Cyclobutylcarbamoyl-pyrrolidin-1-yl)-2-oxo-ethoxy]-1-phenyl-1H-pyrazole-3-carbonyl}-amino)-4-cyclobutoxycarbonyl-butyryl]-piperazine-1-carboxylic acid ethyl ester] | 7.27 | 6.13 |
| CCOC(=O)N1CCN(C(=O)[C@H](CCC(=O)OCC(C)C)NC(=O)c2cc(OCC(=O)N3CCC[C@H]3C(=O)NC3CCC3)n(-c3ccccc3)n2)CC1 [Example 135, 4-[(S)-2-({5-[2-((S)-2-Cyclobutylcarbamoyl-pyrrolidin-1-yl)-2-oxo-ethoxy]-1-phenyl-1H-pyrazole-3-carbonyl}-amino)-4-isobutoxycarbonyl-butyryl]-piperazine-1-carboxylic acid ethyl ester] | 7.22 | 6.18 |
